# Test results from ChEMBL document CHEMBL1150499, “Excitatory amino acids: 6-phosphonomethyltetrahydro-4-pyrimidinecarboxylic acids and their acyclic analogues are competitive N-methyl-D-aspartic acid receptor antagonists” (Bioorg Med Chem Lett, 1992).
# Biological target: Glutamate NMDA receptor
# Assay: Compound was evaluated for its ability to displace […] binding for NMDA receptor
# Format: protein-complex assay
row,IC50 [nM],SMILES
1,28,O=C(O)C1CN(CCCP(=O)(O)O)CCN1 (stereo not drawn)
2,240,NC(CC(CP(=O)(O)O)S(=O)O)C(=O)O (stereo not drawn)
3,24,O=C(O)[C@@H]1C[C@H](CP(=O)(O)O)CCN1 [SELFOTEL]

# Second part, the molecule before the results:
row,SMILES,IC50 [nM]
1,O=C(O)C1CC(CCCP(=O)(O)O)N=CN1 (stereo not drawn),420
2,O=C(O)C1CC(CP(=O)(O)O)N=CN1 (stereo not drawn),5950
3,NC(CCCP(=O)(O)O)CC(N)C(=O)O (stereo not drawn),2270
4,NC(CC(N)C(=O)O)CP(=O)(O)O (stereo not drawn),1440
5,NC(CC(O)CP(=O)(O)O)C(=O)O (stereo not drawn),130
